Read-outs that look alike come from different tables or passages of the source.

One test relates to Sorghum halepense. Briefly: post-emergence greenhouse test, SORHA. It counts as in vivo. The settings on record: Sorghum halepense, 50 g ai/ha, read-out: observed % activity. The text has this: (§1) For the post-emergence treatment, the test plants were first grown to a height of 3 to 20 cm, depending on the plant habit, and only then treated. Here, the herbicidal compositions were suspended or emulsified in water as distribution medium and sprayed using finely distributing nozzles.
(§2) The respective herbicides A and/or safener were formulated as 10% by weight strength suspension concentrate and introduced to the spray liquor with the amount of solvent system used for applying the active compound. Herbicide B and/or safener were used as commercially available formulations and introduced to the spray liquor with the amount of solvent system used for applying the active compound. In the examples, the solvent used was water.
(§3) The test period extended over 21 days. During this time, the plants were tended, and their response to the treatments with active compound was evaluated.
(§4) The evaluation for the damage caused by the chemical compositions was carried out using a scale from 0 to 100%, compared to the untreated control plants. Here, 0 means no damage and 100 means complete destruction of the plants.

For the next test, the system named is Avena fatua. Description: post-emergence greenhouse test, AVEFA. It counts as in vivo. Conditions: 50 g ai/ha, 20 DAT, Table 3.
Description: as §1, §2, §3, §4

In a further test the test system is harmful plants. Conditions: known from Y. Yamaji et al., 2006; cited from earlier work.
Another test has as its system Alopecurus myosuroides. Briefly: pre-emergence greenhouse test, ALOMY. It is filed as in vivo. Conditions: Alopecurus myosuroides, 50 g ai/ha, read-out: observed % activity.
Description: (§5) For the pre-emergence treatment, directly after sowing the active compounds, which had been suspended or emulsified in water, were applied by means of finely distributed nozzles. The containers were irrigated gently to promote germination and growth and subsequently covered with transparent plastic hoods until plant had rooted. This cover caused uniform germination of the tests plants, unless this was adversely affected by active compounds.
as §2, §3, §4

A further test concerns Xanthium strumarium. Description: post-emergence greenhouse test, XANST. It is filed as in vivo. Conditions: Xanthium strumarium, read-out: observed % activity; for inhibition at 13 g/ha: 13 g ai/ha; for inhibition at 25 g/ha: 25 g ai/ha; for inhibition at 100 g/ha: 100 g ai/ha.
Description: as §1, §2, §3, §4

Another test deals with Chenopodium album. Description: pre-emergence greenhouse test, CHEAL. Conditions: Chenopodium album, read-out: observed % activity; for inhibition at 25 g/ha: 25 g ai/ha; for inhibition at 50 g/ha: 50 g ai/ha. It is filed as in vivo.
Description: as §5, §2, §3, §4

In a further test the test system is Setaria italica. Description: pre-emergence greenhouse test, SETIT. It counts as in vivo. Conditions: Setaria italica, 25 g ai/ha, read-out: observed % activity.
Description: as §5, §2, §3, §4

A further test deals with Setaria faberii. Briefly: pre-emergence greenhouse test, SETFA. It is filed as in vivo. Conditions: Setaria faberi, read-out: observed % activity; for inhibition at 25 g/ha: 25 g ai/ha; for inhibition at 50 g/ha: 50 g ai/ha.
Description: as §5, §2, §3, §4

As for `Cn1nc(C(F)(F)F)c(CS(=O)(=O)C2=NOC(C)(C)C2)c1OC(F)F` [pyroxasulfone, 3-[5-(difluoromethoxy)-1-methyl-3-(trifluoromethyl)pyrazol-4-ylmethylsulfonyl]-4,5-dihydro-5,5-dimethyl-1,2-oxazole], the inhibition at 50 g/ha worked out at 65% in the test with Sorghum halepense (192 h, 8 DAT); 90% in the test with Sorghum halepense (480 h, 20 DAT); 90% in the test with Alopecurus myosuroides (192 h, 8 DAT); 98% in the test with Alopecurus myosuroides (480 h, 20 DAT); 70% in the test with Chenopodium album (192 h, 8 DAT); 98% in the test on Chenopodium album (480 h, 20 DAT). The inhibition at 50 g/ha with Setaria faberii (192 h, 8 DAT) stood at 90%; in the test with Setaria faberii (480 h, 20 DAT), 98%. Further, in the test with Avena fatua, the “observed activity in % destruction” value is listed as 75%. In addition, the post-emergence activity entry in the test with harmful plants was “poor”. Further, the inhibition at 13 g/ha was determined as 0% in the test on Xanthium strumarium (192 h, 8 DAT) and 0% in the test with Xanthium strumarium (480 h, 20 DAT). The inhibition at 25 g/ha was 20% in the test with Xanthium strumarium (192 h, 8 DAT); 25% with Xanthium strumarium (480 h, 20 DAT); 65% in the test on Chenopodium album (192 h, 8 DAT); 95% in the test with Chenopodium album (480 h, 20 DAT); 75% in the test on Setaria italica (192 h, 8 DAT); 98% in the test with Setaria italica (480 h, 20 DAT). Moreover, the inhibition at 25 g/ha in the test on Setaria faberii (192 h, 8 DAT) stood at 85%; in the test with Setaria faberii (480 h, 20 DAT), 98%. Also, the inhibition at 100 g/ha turned out to be 25% in the test with Xanthium strumarium (192 h, 8 DAT) and 55% in the test on Xanthium strumarium (480 h, 20 DAT).

Source of the values: patent US20110015068A1, “Herbicidal Compositions Comprising Pyroxasulfone V” (BASF SE, priority 2008, published 2011).
